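Five compound concentrations were applied to cells in 96-well plates for 48 hours; endpoints were derived by simple linear interpolation of the resulting dose-response curve. The concentration for 50% growth inhibition is given as GI50.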 Activity calls are given as the source filed them. No stated cut-off is given here; in the data, active = GI50 up to about 1.1 µM and inactive = higher. Peptide text beside a SMILES is read from it. * marks the point of attachment. Boc = CC(C)(C)OC(=O)*

Among the test systems are DLD-1; KM-20L2; DMS-273; XF498; SNB-78; LXFL 529; DU-145; HOP-18.
What all share (assay): inhibition of tumour cell growth, NCI panel, 48 h

For the molecule `CCCCN(CCCC)C(=O)C(=O)C(C)C(=O)CC` (stereo not drawn), the GI50 in the assay with DLD-1, with KM-20L2, in the assay on DMS-273, in the assay with XF498, in the assay with SNB-78 and in the assay with LXFL 529 was > 100 µM (inactive) throughout.

In the case of `CC1(C)CC(=O)C(=CNC(=S)c2ccccc2)C(=O)C1`, in the assay on DU-145, the GI50 is > 100 µM (inactive).

As to `Cc1c2oc3c(C)cnc(C(=O)NC4C(=O)NC(C(C)C)C(=O)N5CCCC5C(=O)N(C)CC(=O)N(C)C(C(C)C)C(=O)OC4C)c3nc-2c(C(=O)NC2C(=O)NC(C(C)C)C(=O)N3CCCC3C(=O)N(C)CC(=O)N(C)C(C(C)C)C(=O)OC2C)c(N)c1=O` (stereo not drawn), the GI50 in the assay on DU-145 is 4.72 µM (inactive).

In the case of `Cn1ccnc1Sc1ccc(/C=N/NC(=O)c2ccccc2[N+](=O)[O-])cc1[N+](=O)[O-]`, the GI50 in the assay on DU-145 is 66.7 µM (inactive).

On to `O=C(O)C1=Cc2cccc3cccc(c23)C1=O`, for which the GI50 with DLD-1, with KM-20L2, with DMS-273, with HOP-18 and with LXFL 529 was > 100 µM (inactive) each time.

As for `ClC(Cl)=C(Cl)C1(Cl)CC1COCc1ccccc1` (stereo not drawn), the GI50 with DLD-1 was 38 µM (inactive); in the assay with KM-20L2, 33.3 µM (inactive); with DMS-273 it was 42.8 µM (inactive); with XF498, 23.6 µM (inactive); in the assay on SNB-78, 4.83 µM (inactive); with LXFL 529 it was 51.6 µM (inactive).

Consider `O=c1ssc(Cl)c1Cl`, for which the GI50 in the assay on DU-145 was > 10 µM (inactive).

In the case of `COc1cccc(CSCC(=O)O)c1`, the GI50 in the assay with DU-145 was > 100 µM (inactive).

For `C=CC(Br)(CBr)CCC1OC1(C)C` (stereo not drawn), the GI50 with DU-145 was 25.3 µM (inactive).

Turning to `O=C(c1cccs1)N(C(=O)N1CCN(c2ccccc2)CC1)S(=O)(=O)c1ccccc1`, the GI50 with DU-145 was 16.5 µM (inactive).

`CNC(=O)OCC1=C(COC(=O)NC)CN(c2ccccc2)C1`: in the assay with DU-145, the GI50 is > 100 µM (inactive).

Consider `CCOC(C)C(/C=N/NC(N)=S)=NNC(N)=S` (stereo not drawn) [GLOXAZONE], for which the GI50 is > 100 µM (inactive) in the assay with DLD-1, 53.7 µM (inactive) with SNB-78 and 0.0865 µM (active) with LXFL 529.

Turning to `NC(=O)C(=CNC(=S)Nc1ccc(Cl)c(Cl)c1)C(N)=O`, the GI50 with DU-145 was > 100 µM (inactive).

As for `NC(=S)N1N=C2CCCCCC[C@@H]2[C@H]1c1ccccc1`, the GI50 was 56.2 µM (inactive) in the assay on DLD-1; 62.1 µM (inactive) in the assay on KM-20L2; 34.2 µM (inactive) in the assay on DMS-273; 23.9 µM (inactive) in the assay on XF498; > 100 µM (inactive) with SNB-78; 40 µM (inactive) in the assay on LXFL 529.

As for `CC(=O)Nc1ccc2c3c(cc(O)c2c1)N(C(=O)CCCCC(=O)Nc1ccc2c4c(cc(O)c2c1)N(C(=O)OC(C)(C)C)CC4CCl)CC3CCl` (stereo not drawn), the GI50 in the assay on DU-145 is 0.826 µM (active).

Consider `COC(=O)/C=C\C(C#N)(C#N)/N=C/c1cccs1`, for which the GI50 in the assay with DU-145 is 10.7 µM (inactive).

Consider `OCC(O)COCn1cc(Cn2ncc3c(NCc4ccccc4)ncnc32)nn1` (stereo not drawn), for which the GI50 with DU-145 is > 100 µM (inactive).

Regarding `O=C1Cc2cn[nH]c2-c2ccccc2N1`, the GI50 in the assay on DU-145 was 40.7 µM (inactive).

As to `c1ccc(C2=NCCc3cc4c(cc32)OCO4)cc1`, the GI50 with DU-145 is > 100 µM (inactive).

Consider `NCCCOc1ccc([N+](=O)[O-])cc1Cl`, for which the GI50 is > 100 µM (inactive) with DLD-1; > 100 µM (inactive) with KM-20L2; > 100 µM (inactive) with DMS-273; > 100 µM (inactive) in the assay with XF498; 67.3 µM (inactive) in the assay on LXFL 529.

As for `COc1cc(CNc2nc3cc(C(F)(F)F)ccc3nc2C)cc(OC)c1OC`, the GI50 in the assay with DU-145 is 26.4 µM (inactive).

Turning to `O=C(O)C(CO)NC(=O)n1c2ccccc2c2ccccc21` (stereo not drawn), the GI50 in the assay on DLD-1, in the assay on DMS-273, in the assay on HOP-18, in the assay on XF498 and in the assay on LXFL 529 was > 100 µM (inactive) throughout.

With `O=C(N/C(=C\c1cc(Cl)ccc1Cl)c1nc2cc(Cl)ccc2[nH]1)c1ccccc1`, the GI50 in the assay on DLD-1 was 12.8 µM (inactive); in the assay with KM-20L2, 18.2 µM (inactive); in the assay on SNB-78, 21.7 µM (inactive); in the assay with LXFL 529 it was 13.6 µM (inactive).

As to `CC(NC(=O)OC(C)(C)C)C(=O)NC(Cc1ccccc1)C(=O)NCC(=O)O` (stereo not drawn) (Boc-Ala-Phe-Gly-OH; configuration not given here), the GI50 in the assay with DU-145 is > 100 µM (inactive).

Take `COc1cc(OCc2nc3ccccc3n3cccc23)cc(OC)c1OC`: the GI50 with DU-145 is 55.8 µM (inactive).

Regarding `COc1cc(/C=C2\C(=O)N(c3cccc(NC(C)=O)c3)C(c3ccccc3)S2(=O)=O)cc(OC)c1OC` (stereo not drawn), the GI50 with DU-145 was > 100 µM (inactive).

`C#CCOC(=O)C(N)CC(N)=O` (stereo not drawn): the GI50 with DU-145 is > 100 µM (inactive).

Turning to `Cc1ccc(Nc2c(C#N)[n+]([O-])c3cc(Cl)ccc3[n+]2[O-])cc1`, the GI50 with DU-145 is > 100 µM (inactive).

As to `O=C1C=C(c2[nH]c3ccccc3c2C2=CC(=O)c3ccccc3C2=O)C(=O)c2ccccc21`, the GI50 with DLD-1 is 57.1 µM (inactive); in the assay on DMS-273, 39.2 µM (inactive); with HOP-18 it was > 100 µM (inactive); in the assay on SNB-78, 32.8 µM (inactive); in the assay with LXFL 529 it was 37.3 µM (inactive).

Take `FC(F)(F)c1ccc(Cc2nc3cc4ccccc4cc3[nH]2)cc1`: the GI50 with DU-145 is > 100 µM (inactive).

In the case of `C/C(=N\NS(=O)(=O)c1ccc(C)cc1)c1cc2ccccc2n1C`, the GI50 in the assay on DLD-1, in the assay with KM-20L2, with DMS-273 and in the assay with LXFL 529 was > 100 µM (inactive) throughout.

As to `CC(=O)CC(=O)c1cc2c(=O)oc(C)cc2oc1=O`, in the assay with DU-145, the GI50 is > 37.5 µM (inactive).

Take `Nc1cc(CO)cc(Nc2c3ccccc3nc3occc23)c1`: the GI50 in the assay on DU-145 was 43.3 µM (inactive).

`COC(=O)c1ccc(CN2CCc3c([nH]c4ccccc34)C2CO)o1` (stereo not drawn): the GI50 with DU-145 is > 10 µM (inactive).

On to `COC(Cc1ccccc1)NC(C)=O` (stereo not drawn), for which, in the assay with DU-145, the GI50 was > 100 µM (inactive).

For `COc1cc(/C=N/N=C(\N)NO)ccc1O`, the figures for the GI50 with DLD-1, in the assay on SNB-78 and in the assay with LXFL 529 were > 100 µM (inactive), > 100 µM (inactive) and 28.6 µM (inactive), respectively.

`COc1cc(O)c2c(c1)C(O)C(O)CC1OC1C(=O)/C=C/CC(C)OC2=O` (stereo not drawn): in the assay on DU-145, the GI50 was 15.7 µM (inactive).

Regarding `COc1ccc(COCC[C@H](C)OC2OC(CO[Si](C)(C)C(C)(C)C)C(OC(=O)CCCN=[N+]=[N-])C(OC(=O)CCCN=[N+]=[N-])C2OC(=O)CCCN=[N+]=[N-])cc1` (stereo partly drawn), the GI50 in the assay with DU-145 is > 100 µM (inactive).

On to `COc1cc(C=C2C(=O)OC(C)(C)OC2=O)cc(OC)c1OC`, for which the GI50 with DLD-1, in the assay with KM-20L2, in the assay with DMS-273, in the assay with HOP-18, in the assay with SNB-78 and in the assay with LXFL 529 was > 100 µM (inactive) each time.

As for `CC1CCc2sc3nc(S)n(C)c(=O)c3c2C1` (stereo not drawn), in the assay on DU-145, the GI50 is 50.8 µM (inactive).

For the molecule `COc1ccc(/C=C2\C[C@H]3[C@@H]4CCC5=C/C(=N/O)CC[C@]5(C)[C@H]4CC[C@]3(C)\C2=N\O)cc1`, in the assay with DU-145, the GI50 was 13.4 µM (inactive).

Take `Cc1cccc2c1CC1(Cc3c(C)cccc3C1=O)C2=O`: the GI50 in the assay with DU-145 is > 100 µM (inactive).

As for `N#CC1CCCCCCCCCCC(=O)N(CCCl)C1=O` (stereo not drawn), the GI50 in the assay with DLD-1, in the assay on KM-20L2, with DMS-273, in the assay on XF498, in the assay on SNB-78 and with LXFL 529 was > 100 µM (inactive) in each case.

On to `CON(C)C(=O)C1CCCO1` (stereo not drawn), for which the GI50 in the assay with DU-145 is > 100 µM (inactive).

As for `CCOC(=O)C(NCc1ccc2c(c1)OCO2)(NC(=O)c1ccccc1)C(F)(F)F` (stereo not drawn), the GI50 in the assay with DU-145 is > 100 µM (inactive).

Consider `O=C1Nc2c(ccc(Cl)c2I)C1=O`, for which the GI50 in the assay with DLD-1 was 18.5 µM (inactive); in the assay with KM-20L2, 30 µM (inactive); in the assay with DMS-273, 17 µM (inactive); in the assay with XF498 it was 16 µM (inactive); in the assay with LXFL 529, 14 µM (inactive).

In the case of `C[C@H](CCC(=O)O)[C@H]1CC[C@H]2[C@@H]3[C@@H](O)C[C@@H]4C[C@H](O)CC[C@]4(C)[C@H]3CC[C@]12C`, in the assay with DU-145, the GI50 was > 100 µM (inactive).

On to `CN(C)CCC(O)(c1ccccc1)C(O)(CCN(C)C)c1ccccc1` (stereo not drawn), for which the GI50 is > 100 µM (inactive) in the assay with DLD-1; 67 µM (inactive) with KM-20L2; 38.7 µM (inactive) in the assay with XF498; > 100 µM (inactive) in the assay on SNB-78; > 100 µM (inactive) in the assay on LXFL 529.

For the molecule `CC1=NN(C(=O)c2ccccc2O)C(=O)/C1=C/c1cccc(O)c1`, the GI50 in the assay with DLD-1 is 0.167 µM (active); with KM-20L2, 25.5 µM (inactive); in the assay on XF498, 0.783 µM (active); with SNB-78 it was 0.276 µM (active); with DU-145, 0.536 µM (active); in the assay on LXFL 529, 0.276 µM (active).

As to `C[C@@](Br)(C(=O)O)[C@H](Br)C(=O)O`, the GI50 in the assay with DU-145 is > 100 µM (inactive).

Turning to `CCOC(=O)c1c(C)n(-c2ccc(C)cc2)c(=O)c2ccccc2c(=O)c2c(=O)ccc(=O)c1=2`, the GI50 with DU-145 was 20 µM (inactive).

For `Cc1ccc(Cl)c2c(=O)cc(-c3ccccc3)[nH]c12`, the GI50 in the assay with DLD-1 is > 100 µM (inactive); with DMS-273 it was 35.6 µM (inactive); with HOP-18 it was 11.5 µM (inactive); in the assay with LXFL 529 it was 41.7 µM (inactive).

As for `CCOC(=O)c1nc2cc(C(F)(F)F)ccc2nc1Nc1ccc(OC)cc1`, in the assay on DU-145, the GI50 is > 100 µM (inactive).

Turning to `O=C1C(Cl)=C(NCCOCCO)C(=O)c2c(O)ccc(O)c21`, the GI50 in the assay with DLD-1 is 2.13 µM (inactive); in the assay with DMS-273 it was 3.89 µM (inactive); in the assay with HOP-18, 15.6 µM (inactive); with SNB-78 it was 12.7 µM (inactive); in the assay on LXFL 529, 7.62 µM (inactive).

For `O=C(NCCCl)Nc1ccccc1`, the GI50 in the assay with DU-145 is > 100 µM (inactive).

Consider `Clc1ccc(Cc2nc3ccccc3o2)cc1`, for which, in the assay with DU-145, the GI50 was > 100 µM (inactive).

Turning to `CCCC#CCOC(=O)c1cc([N+](=O)[O-])cc([N+](=O)[O-])c1`, the GI50 in the assay on DU-145 was > 100 µM (inactive).

As to `COc1ccc(/C=C2\CCCc3ccccc3C2=O)cc1`, the GI50 with DU-145 is 0.185 µM (active).

In the case of `O=C(O)C(O)c1ccc(F)cc1` (stereo not drawn), the GI50 in the assay on DU-145 was > 100 µM (inactive).

In the case of `COC(=O)C1=C(\c2ccccc2)c2ccccc2C(=O)N(C2CCCCC2)/C=C\1`, in the assay on DU-145, the GI50 is 60 µM (inactive).

Regarding `COc1ccc2c(-c3ccc(OCCN(C)C)cc3)c(Oc3ccc(Cl)cc3)c(=O)oc2c1`, in the assay on DU-145, the GI50 was 13.7 µM (inactive).

Consider `Cc1cccc2c1C(=O)[C@](C)([C@]1(C)Nc3cccc(C)c3C1=O)N2`, for which the GI50 in the assay on DU-145 is 54.1 µM (inactive).
